The results in this text go back to ChEMBL document CHEMBL1149386, “Design and synthesis of 5-aryl-pyridone-carboxamides as inhibitors of anaplastic lymphoma kinase” (J Med Chem, 2006).

Where only a bound is given, the exact number is not on record here.

In one experiment the target is Insulin receptor (Homo sapiens, UniProt P06213). Nature of the experiment: Inhibitory activity against IRK.
In experiment [1] the target is ALK tyrosine kinase receptor (Homo sapiens, UniProt Q9UM73). Nature of the experiment: Inhibitory activity against ALK.
Another experiment relates to BaF3. The experiment can be described thus: Antiproliferative activity against parental interleukin-3-dependent BaF3 cell line. The format is functional, cell-based. Particulars: Mus musculus.
The target of experiment [2] is T1, Receptor-type tyrosine-protein kinase FLT3 (Homo sapiens, UniProt P36888).
T1 sequence (P36888 whole entry): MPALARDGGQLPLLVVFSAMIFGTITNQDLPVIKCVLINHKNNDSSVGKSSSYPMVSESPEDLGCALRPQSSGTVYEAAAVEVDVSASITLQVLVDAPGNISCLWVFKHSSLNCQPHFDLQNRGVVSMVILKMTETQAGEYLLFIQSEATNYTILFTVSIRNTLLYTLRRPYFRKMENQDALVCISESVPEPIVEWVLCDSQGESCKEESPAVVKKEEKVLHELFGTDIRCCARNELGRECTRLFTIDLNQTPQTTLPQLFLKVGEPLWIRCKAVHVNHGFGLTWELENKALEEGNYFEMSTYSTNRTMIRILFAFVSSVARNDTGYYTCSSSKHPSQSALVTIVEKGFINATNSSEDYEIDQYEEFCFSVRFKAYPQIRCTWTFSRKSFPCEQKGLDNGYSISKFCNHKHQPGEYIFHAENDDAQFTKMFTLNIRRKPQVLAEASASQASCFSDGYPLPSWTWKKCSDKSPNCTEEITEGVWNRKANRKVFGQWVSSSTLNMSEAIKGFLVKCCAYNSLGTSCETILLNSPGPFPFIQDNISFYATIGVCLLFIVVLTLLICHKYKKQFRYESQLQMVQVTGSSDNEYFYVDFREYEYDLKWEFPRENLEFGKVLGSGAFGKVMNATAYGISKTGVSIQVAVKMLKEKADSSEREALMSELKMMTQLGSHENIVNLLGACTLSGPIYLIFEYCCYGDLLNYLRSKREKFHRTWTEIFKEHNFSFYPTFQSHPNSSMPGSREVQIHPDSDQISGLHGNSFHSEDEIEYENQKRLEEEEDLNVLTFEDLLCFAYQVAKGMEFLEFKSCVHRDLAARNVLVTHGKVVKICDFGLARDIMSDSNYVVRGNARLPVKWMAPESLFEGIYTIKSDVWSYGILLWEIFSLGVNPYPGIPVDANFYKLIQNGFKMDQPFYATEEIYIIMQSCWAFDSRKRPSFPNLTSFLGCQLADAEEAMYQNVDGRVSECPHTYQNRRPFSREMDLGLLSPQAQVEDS
The experiment can be described thus: Inhibitory activity against Flt3.

The target in experiment [3] is Tyrosine-protein kinase ABL1 (Homo sapiens, UniProt P00519). The experiment can be described thus: Inhibitory activity against Abl.
Sequence of Tyrosine-protein kinase ABL1 (P00519 whole entry): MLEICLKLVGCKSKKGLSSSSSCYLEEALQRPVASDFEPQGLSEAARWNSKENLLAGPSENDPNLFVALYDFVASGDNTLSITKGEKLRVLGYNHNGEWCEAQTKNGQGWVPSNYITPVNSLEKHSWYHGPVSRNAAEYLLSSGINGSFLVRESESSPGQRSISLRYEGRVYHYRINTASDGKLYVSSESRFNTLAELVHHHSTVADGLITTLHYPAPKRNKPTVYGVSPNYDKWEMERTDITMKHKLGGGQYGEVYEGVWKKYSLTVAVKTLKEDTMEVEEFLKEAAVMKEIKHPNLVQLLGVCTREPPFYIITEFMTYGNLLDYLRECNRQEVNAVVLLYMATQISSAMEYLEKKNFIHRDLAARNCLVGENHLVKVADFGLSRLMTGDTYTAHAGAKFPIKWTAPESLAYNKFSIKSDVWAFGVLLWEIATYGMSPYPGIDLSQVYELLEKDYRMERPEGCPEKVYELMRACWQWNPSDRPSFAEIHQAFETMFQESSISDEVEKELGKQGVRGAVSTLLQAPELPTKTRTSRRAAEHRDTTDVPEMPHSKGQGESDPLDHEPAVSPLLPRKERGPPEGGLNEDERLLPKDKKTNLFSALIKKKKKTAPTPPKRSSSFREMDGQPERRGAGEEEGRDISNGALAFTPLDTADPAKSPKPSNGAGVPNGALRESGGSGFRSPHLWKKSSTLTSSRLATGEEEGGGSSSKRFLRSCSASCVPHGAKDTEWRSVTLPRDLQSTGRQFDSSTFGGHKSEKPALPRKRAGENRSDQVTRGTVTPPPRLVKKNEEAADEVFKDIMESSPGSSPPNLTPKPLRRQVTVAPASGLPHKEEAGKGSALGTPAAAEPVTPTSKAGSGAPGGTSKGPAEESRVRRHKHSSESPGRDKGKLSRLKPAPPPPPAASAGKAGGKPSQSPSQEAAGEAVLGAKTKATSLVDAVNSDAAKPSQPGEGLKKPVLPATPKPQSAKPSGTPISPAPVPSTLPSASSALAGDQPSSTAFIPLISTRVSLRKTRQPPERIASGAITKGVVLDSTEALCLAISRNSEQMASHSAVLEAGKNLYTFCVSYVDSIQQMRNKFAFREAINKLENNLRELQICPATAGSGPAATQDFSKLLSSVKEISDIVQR
In another experiment the test system is Jurkat. The experiment can be described thus: Antiproliferative activity against human T-cell leukemia Jurkat cell line. The format is functional, cell-based.
In experiment [4] the target is Proto-oncogene tyrosine-protein kinase Src (Homo sapiens, UniProt P12931). Nature of the experiment: Inhibitory activity against Src.
Sequence of Proto-oncogene tyrosine-protein kinase Src (P12931 2-536 limits assumed): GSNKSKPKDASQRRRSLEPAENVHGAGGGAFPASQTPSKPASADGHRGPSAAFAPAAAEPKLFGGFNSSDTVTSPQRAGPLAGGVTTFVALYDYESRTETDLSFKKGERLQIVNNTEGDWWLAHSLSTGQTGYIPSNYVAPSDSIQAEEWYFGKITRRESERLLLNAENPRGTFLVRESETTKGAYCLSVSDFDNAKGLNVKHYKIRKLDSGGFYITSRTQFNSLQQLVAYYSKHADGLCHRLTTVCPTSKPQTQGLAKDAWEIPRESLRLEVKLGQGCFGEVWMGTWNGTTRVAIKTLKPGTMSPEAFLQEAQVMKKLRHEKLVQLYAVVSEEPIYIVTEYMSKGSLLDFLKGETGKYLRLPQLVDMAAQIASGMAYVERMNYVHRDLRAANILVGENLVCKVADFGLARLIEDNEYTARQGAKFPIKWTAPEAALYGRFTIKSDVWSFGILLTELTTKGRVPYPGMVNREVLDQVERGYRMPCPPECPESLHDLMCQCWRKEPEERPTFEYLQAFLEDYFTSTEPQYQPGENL
In experiment [5] the target is Insulin-like growth factor 1 receptor (Homo sapiens, UniProt P08069). Nature of the experiment: Inhibitory activity against IGF1R.
The target in the next experiment is Bcr/Abl fusion protein (Homo sapiens, UniProt P00519). Nature of the experiment: Antiproliferative activity against human BCR-ABL positive chronic myeloid leukemia K562 cell line. The class given is functional, cell-based.
Sequence of Bcr/Abl fusion protein (P00519 whole entry, the tested form may be a part): as the sequence (P00519 whole entry) above
Sequence of Bcr/Abl fusion protein (P11274 whole entry, further chain, the tested form may be a part): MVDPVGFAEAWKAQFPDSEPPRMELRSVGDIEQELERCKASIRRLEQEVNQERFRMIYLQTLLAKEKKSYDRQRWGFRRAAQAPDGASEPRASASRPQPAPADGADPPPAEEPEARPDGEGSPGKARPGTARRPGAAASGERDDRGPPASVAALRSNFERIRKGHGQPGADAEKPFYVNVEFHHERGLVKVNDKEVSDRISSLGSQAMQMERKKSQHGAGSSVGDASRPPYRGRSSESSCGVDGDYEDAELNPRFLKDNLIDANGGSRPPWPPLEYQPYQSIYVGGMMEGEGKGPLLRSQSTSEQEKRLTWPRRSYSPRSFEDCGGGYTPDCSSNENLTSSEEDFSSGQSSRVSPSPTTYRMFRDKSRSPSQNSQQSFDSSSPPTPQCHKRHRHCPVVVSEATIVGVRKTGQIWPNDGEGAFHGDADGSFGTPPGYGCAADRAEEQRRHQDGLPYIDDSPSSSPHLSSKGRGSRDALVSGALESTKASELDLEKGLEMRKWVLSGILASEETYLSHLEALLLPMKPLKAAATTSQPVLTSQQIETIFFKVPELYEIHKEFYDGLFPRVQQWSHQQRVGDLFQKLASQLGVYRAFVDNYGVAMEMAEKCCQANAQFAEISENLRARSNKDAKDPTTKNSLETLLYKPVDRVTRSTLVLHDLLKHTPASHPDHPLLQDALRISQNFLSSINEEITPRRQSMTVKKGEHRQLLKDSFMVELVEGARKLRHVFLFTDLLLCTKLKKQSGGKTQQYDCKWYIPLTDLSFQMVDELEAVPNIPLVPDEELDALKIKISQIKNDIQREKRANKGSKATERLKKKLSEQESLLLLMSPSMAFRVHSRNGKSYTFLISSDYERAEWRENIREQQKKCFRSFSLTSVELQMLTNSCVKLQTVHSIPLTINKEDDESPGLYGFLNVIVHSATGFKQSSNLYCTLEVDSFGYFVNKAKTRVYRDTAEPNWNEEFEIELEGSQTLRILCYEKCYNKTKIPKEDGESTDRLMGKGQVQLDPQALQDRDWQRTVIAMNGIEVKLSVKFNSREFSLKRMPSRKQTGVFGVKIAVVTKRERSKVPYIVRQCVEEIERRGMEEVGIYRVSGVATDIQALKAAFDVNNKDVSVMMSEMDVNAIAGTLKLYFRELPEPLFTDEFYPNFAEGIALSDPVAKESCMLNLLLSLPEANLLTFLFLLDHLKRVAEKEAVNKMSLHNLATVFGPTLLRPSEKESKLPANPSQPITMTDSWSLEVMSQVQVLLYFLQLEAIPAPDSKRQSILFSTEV

Sequence of Insulin receptor (P06213 28-758 limits assumed): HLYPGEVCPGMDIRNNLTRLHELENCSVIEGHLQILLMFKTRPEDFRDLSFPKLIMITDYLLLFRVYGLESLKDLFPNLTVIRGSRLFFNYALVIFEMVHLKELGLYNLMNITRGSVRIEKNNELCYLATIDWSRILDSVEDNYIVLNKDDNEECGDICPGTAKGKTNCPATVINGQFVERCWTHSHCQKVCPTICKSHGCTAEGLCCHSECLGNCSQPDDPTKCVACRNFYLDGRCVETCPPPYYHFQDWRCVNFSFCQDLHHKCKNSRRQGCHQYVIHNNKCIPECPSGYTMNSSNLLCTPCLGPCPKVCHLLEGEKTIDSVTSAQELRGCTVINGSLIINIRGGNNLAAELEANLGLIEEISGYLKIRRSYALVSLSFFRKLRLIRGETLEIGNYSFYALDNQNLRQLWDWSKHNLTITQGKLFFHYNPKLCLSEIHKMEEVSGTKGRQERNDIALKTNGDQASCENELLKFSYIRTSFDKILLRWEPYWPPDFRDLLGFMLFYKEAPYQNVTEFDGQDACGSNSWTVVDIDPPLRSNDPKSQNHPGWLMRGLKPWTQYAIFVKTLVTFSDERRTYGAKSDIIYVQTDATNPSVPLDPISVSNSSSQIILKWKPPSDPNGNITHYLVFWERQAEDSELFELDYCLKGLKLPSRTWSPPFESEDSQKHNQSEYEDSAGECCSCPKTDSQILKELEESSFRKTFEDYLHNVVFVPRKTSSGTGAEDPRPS
Sequence of Insulin receptor (P06213 763-1382 limits assumed): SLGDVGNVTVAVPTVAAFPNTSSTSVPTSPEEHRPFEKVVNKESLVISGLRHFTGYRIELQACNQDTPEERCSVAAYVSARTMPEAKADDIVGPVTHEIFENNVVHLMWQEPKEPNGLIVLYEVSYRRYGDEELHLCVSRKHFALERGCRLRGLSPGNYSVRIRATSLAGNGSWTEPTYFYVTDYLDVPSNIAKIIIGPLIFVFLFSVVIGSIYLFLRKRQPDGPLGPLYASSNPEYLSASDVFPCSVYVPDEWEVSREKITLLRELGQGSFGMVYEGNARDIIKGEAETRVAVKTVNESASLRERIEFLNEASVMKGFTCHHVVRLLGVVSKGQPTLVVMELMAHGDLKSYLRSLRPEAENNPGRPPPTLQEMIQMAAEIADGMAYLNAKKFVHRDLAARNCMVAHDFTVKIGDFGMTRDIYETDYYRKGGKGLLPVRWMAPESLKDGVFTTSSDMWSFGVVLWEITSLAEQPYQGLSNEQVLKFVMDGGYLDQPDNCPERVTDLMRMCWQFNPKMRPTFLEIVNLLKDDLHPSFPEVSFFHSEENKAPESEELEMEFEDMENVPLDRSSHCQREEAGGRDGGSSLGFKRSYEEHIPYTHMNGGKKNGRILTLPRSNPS

Usually IC50 stands for the midpoint of a concentration-inhibition curve. As to `CN1CCN(Cc2ccc(NC(=O)c3cc(-c4ccc5c(c4)OCO5)cn(C)c3=O)cc2)CC1`, the IC50 (against Insulin receptor; in experiment [1]) was over 40 µM each time.
In general, Ki refers to the equilibrium dissociation constant of an inhibitor or competing ligand from its target. `CN1CCN(Cc2ccc(NC(=O)c3cc(-c4ccc5c(c4)OCO5)cnc3O)cc2)CC1`: the IC50 is over 25 µM with BaF3; over 20 µM in experiment [2]; over 20 µM in experiment [3]; 0.9 µM in experiment [1]; 9.2 µM with Jurkat; over 20 µM in experiment [4]. The figures for the concentration for half-maximal inhibition (IC50) (in experiment [5]; against Bcr/Abl fusion protein) were over 20 µM and 12.9 µM, respectively. The molecule also came in with a Ki in experiment [1] of 0.5 µM.
As to `COc1ccc(-c2c[nH]c(=O)c(C(=O)Nc3ccc(CN4CCN(C)CC4)cc3)c2)cn1`, the IC50 is 13.8 µM on Insulin receptor and 3 µM in [1].
On the same counts, the results for `COc1ncc(-c2ccc3c(c2)OCO3)cc1C(=O)Nc1ccc(CN2CCN(C)CC2)cc1` are over 40 µM and 20.3 µM.
On the same counts, the results for `Cc1cc(CN2CCN(C)CC2)ccc1NC(=O)c1cc(-c2ccc3c(c2)OCO3)cnc1O` are over 40 µM and 14.5 µM.
On the same counts, the results for `CN1CCN(Cc2ccc(N(C)C(=O)c3cc(-c4ccc5c(c4)OCO5)cnc3O)cc2)CC1` are 32.5 µM and 3.7 µM.
Regarding `CN1CCN(CCCc2ccc(NC(=O)c3cc(-c4ccc5c(c4)OCO5)cnc3O)cc2)CC1`, the IC50 at Insulin receptor was 10.1 µM; in the experiment on BaF3, 16.2 µM; in experiment [2], over 20 µM; in experiment [3], over 20 µM; in experiment [1] it was 1.3 µM; in the experiment on Jurkat, 9.3 µM. Also, the concentration for half-maximal inhibition (IC50) is over 20 µM in experiment [4], over 20 µM in experiment [5] and 14.6 µM at Bcr/Abl fusion protein. Besides, the Ki at Insulin receptor stood at 9 µM; in [1] it was 1.1 µM.
With `COc1cc(-c2c[nH]c(=O)c(C(=O)Nc3ccc(CN4CCN(C)CC4)cc3)c2)cc(OC)c1OC`, the figures for the IC50 (at Insulin receptor; in experiment [1]) were 33.5 µM and 7.5 µM, respectively.
`CN1CCN(Cc2ccc(NC(=O)c3cc(-c4ccc5nccnc5c4)c[nH]c3=O)cc2)CC1`: the IC50 came out at 7 µM at Insulin receptor and 5.5 µM in experiment [1].
As for `CN1CCN(Cc2ccc(NC(=O)c3cc(-c4ccc5c(c4)OCO5)cnc3Cl)cc2)CC1`, the results for the IC50 (at Insulin receptor; in experiment [1]) were 27.3 µM and 26.8 µM, respectively.
On the same counts, the results for `COc1cc(CN2CCN(C)CC2)ccc1NC(=O)c1cc(-c2ccc3c(c2)OCO3)cnc1O` are over 40 µM and 13.8 µM.
On the same counts, the results for `CN1CCN(Cc2ccc(NC(=O)c3cc(-c4ccncc4)cnc3O)cc2)CC1` are over 40 µM and 19.5 µM.
With `Cc1nc2cc(-c3cnc(O)c(C(=O)Nc4ccc(CN5CCN(C)CC5)cc4)c3)ccc2s1`, the IC50 stood at 16 µM on Insulin receptor and 3.8 µM in [1].
For the molecule `CN1CCN(CCc2ccc(NC(=O)c3cc(-c4ccc5c(c4)OCO5)cnc3O)cc2)CC1`, the IC50 is 18 µM with BaF3; 4 µM in experiment [2]; over 20 µM in [3]; 0.4 µM in experiment [1]; 4.7 µM in the experiment on Jurkat; over 20 µM in experiment [4]. This molecule also showed an IC50 on Bcr/Abl fusion protein of 9.5 µM. Also, the Ki in experiment [1] amounted to 0.2 µM.
As to `CN1CCN(c2ccc(NC(=O)c3cc(-c4ccc5c(c4)OCO5)c[nH]c3=O)cc2)CC1`, the IC50 in [2] was 5 µM; in experiment [3] it was over 20 µM; in [4] it was over 20 µM; against Bcr/Abl fusion protein, 3.8 µM.
